These results are taken from PMC4786016 (Environmental science & technology, 2015).

Where a name gives a salt, the structure may show the parent alone. Read-outs that look alike come from different tables or passages of the source. A value given as a limit tells only on which side of the number the result lay.

Data set [1] has as its target T1, human PPARγ1 (Homo sapiens, UniProt P37231). Briefly: GeneBLAzer PPARγ1 non-DA reporter gene assay. As to conditions: for Emax: HEK293, read-out: ATVmax: maximal activation% of the tested compounds relative to rosiglitazone.
For data set [2], the target named is T1, human PPARγ1.
The test system of data set [3] is PPARγ. As to conditions: cited from earlier work.
Data set [4] has as its system HEK293 cells. Nature of the data set: Alamar Blue cell viability assay. As to conditions: high doses.
Where [5] appears, read: HEK293 PPARγ1 reporter, 15% of rosiglitazone maximal response.
[6] abbreviates: HEK293 PPARγ1 reporter, 20% of rosiglitazone maximal response.

As to `Oc1cc(Br)cc(Br)c1Oc1ccc(Br)cc1Br` [6-OH-BDE47, 6-hydroxide-2,2′,4,4′-tetrabromodiphenyl ether (metabolite)], in data set [1], the “ATVmax: maximal activation% of the tested compounds relative to rosiglitazone” value is listed as less than 8% and the “PPARγ1 activation (in words)” value is reported as “no activation was observed”.

`Oc1c(Br)cc(Br)cc1Br` [2,4,6-TBP, 2,4,6-tribrominated phenol] showed an NOAEL in data set [2] of 0.8 µM. Further, in data set [1], the “ATVmax: maximal activation% of the tested compounds relative to rosiglitazone” value is 18%; the “EC15 (concentration inducing 15% activation)” value was 5.89 µM; the “[ATVmax]: concentration of the tested compounds to induce the maximal activation%” value (“[ATVmax] … to induce the maximal activation%” for short) is 7 µM; the “efficacy (qualitative, based on ATVmax)” value is reported as “+ (key: + 7–20%; ++ 20–30%; +++ 30–40%; ++++ 40–50%; +++++ >50%)”.

With `Oc1cc(Cl)ccc1Oc1ccc(Cl)cc1Cl` [TCS, triclosan], the “PPARγ binding potency (in words)” value in data set [3] is on record as “moderate binding potency”. For the same molecule, in data set [1], the “PPARγ1 activation (in words)” value was “did not initiate any activation of PPARγ1” and the Emax was less than 8%.

In data set [2], `CC(C)(c1cc(Cl)c(O)c(Cl)c1)c1cc(Cl)c(O)c(Cl)c1` [TCBPA, 3,5,3′,5′-tetrachlorobisphenol A] registered an NOAEL of 0.09 µM. Further, in data set [1] (HEK293 PPARγ1 reporter), the “[ATVmax] … to induce the maximal activation%” value was 7 µM and the “efficacy (qualitative, based on ATVmax)” value is recorded as “+++++ (+++++ >50%)”. In addition, the “EC15 (concentration inducing 15% activation)” value in data set [1] (setting [5]) was determined as 0.23 µM. The “EC20 (concentration inducing 20% activation)” value in data set [1] (setting [6]) was determined as 0.47 µM. The “ATVmax: maximal activation% of the tested compounds relative to rosiglitazone” value in data set [1] (HEK293 PPARγ1 reporter, normalized to maximal response of rosiglitazone) is given as 52%.

In data set [2], `O=P(Oc1ccccc1)(Oc1ccccc1)Oc1ccccc1` [TPP, triphenyl phosphate] returned an NOAEL of 0.4 µM. Moreover, in data set [1], the “ATVmax: maximal activation% of the tested compounds relative to rosiglitazone” value worked out at 43%, the “EC15 (concentration inducing 15% activation)” value was determined as 2.12 µM, the “EC20 (concentration inducing 20% activation)” value stood at 3.27 µM and the “[ATVmax] … to induce the maximal activation%” value amounted to 11 µM. In data set [1], the “concentration at which the compound began to activate PPARγ1” value (“concentration … to activate PPARγ1” for short) is recorded as “about 0.4 μM” and the “efficacy (qualitative, based on ATVmax)” value is recorded as “++++ (key: + 7–20%; ++ 20–30%; +++ 30–40%; ++++ 40–50%; +++++ >50%)”.

As to `O=C(O)c1cc(Br)c(Br)c(Br)c1Br` [TBBA, 2,3,4,5-tetrabromobenzoic acid (metabolite)], the NOAEL in data set [2] stood at 1.2 µM. Moreover, in data set [1], the “ATVmax: maximal activation% of the tested compounds relative to rosiglitazone” value worked out at 20%; the “EC15 (concentration inducing 15% activation)” value was found to be 8.16 µM; the “EC20 (concentration inducing 20% activation)” value came to 33 µM; the “efficacy (qualitative, based on ATVmax)” value is given as “++ (key: + 7–20%; ++ 20–30%; +++ 30–40%; ++++ 40–50%; +++++ >50%)”.

In the case of `CC(C)(C)c1ccc(OP(=O)(Oc2ccc(C(C)(C)C)cc2)Oc2ccc(C(C)(C)C)cc2)cc1` [TBPP, tris (4,tert-butyl-phenyl) phosphate], in data set [2], the NOAEL came to 0.4 µM. Also, in data set [1], the “ATVmax: maximal activation% of the tested compounds relative to rosiglitazone” value worked out at 12%; the “[ATVmax] … to induce the maximal activation%” value was determined as 11 µM; the “efficacy (qualitative, based on ATVmax)” value is recorded as “+ (key: + 7–20%; ++ 20–30%; +++ 30–40%; ++++ 40–50%; +++++ >50%)”.

Consider Firemaster 550 (mixture) [FM550], for which, in data set [2], the NOAEL was 1.2 µM. In other words, the single-digit micromolar range.

In data set [2], “di-isopropylated triaryl phosphates [Di-ITP]” came in with an NOAEL of 1.2 µM. Further, the “cell viability (in words)” value in data set [4] is on record as “Highly reduced cell viability”. Moreover, in data set [1], the “ATVmax: maximal activation% of the tested compounds relative to rosiglitazone” value amounted to 16%; the “EC15 (concentration inducing 15% activation)” value was found to be 3.25 µM; the “[ATVmax] … to induce the maximal activation%” value came to 3.6 µM; the “efficacy (qualitative, based on ATVmax)” value is “+ (key: + 7–20%; ++ 20–30%; +++ 30–40%; ++++ 40–50%; +++++ >50%)”.

In turn, `CCCCOC(=O)c1ccccc1C(=O)OCc1ccccc1` [BzBP, benzylbutyl phthalate] registered an NOAEL in data set [2] of 0.13 µM. Also, in data set [1], the “ATVmax: maximal activation% of the tested compounds relative to rosiglitazone” value is on record as 34%, the “EC15 (concentration inducing 15% activation)” value was found to be 2.94 µM, the “EC20 (concentration inducing 20% activation)” value was determined as 4.81 µM and the “[ATVmax] … to induce the maximal activation%” value came to 10 µM. In addition, the “efficacy (qualitative, based on ATVmax)” value in data set [1] is “+++ (key: + 7–20%; ++ 20–30%; +++ 30–40%; ++++ 40–50%; +++++ >50%)”.

Consider “tert-butyl phenyl diphenyl phosphate (mixture) [BPDP]”, for which, in data set [2], the NOAEL was determined as 0.4 µM.

With `CCCCC(CC)COC(=O)c1ccccc1C(=O)OCC(CC)CCCC` (stereo not shown) [DEHP, bis(2-ethylhexyl) phthalate], the “PPARγ1 activation (in words)” value in data set [1] (reporter assay) was “no activation was observed”.

Turning to `CCCCC/C=C/C=C1/C(=O)C=C[C@@H]1C/C=C\CCCC(=O)O` [15d-PJG2, 15-Deoxy-D12,14-prostaglandin J2 (endogenous ligands), reference compound], the no observed adverse effect level (NOAEL) in data set [2] amounted to 0.01 µM. In data set [1], the “ATVmax: maximal activation% of the tested compounds relative to rosiglitazone” value stood at 85%, the “EC15 (concentration inducing 15% activation)” value was determined as 0.51 µM, the “EC20 (concentration inducing 20% activation)” value was 0.74 µM and the “[ATVmax] … to induce the maximal activation%” value came out at 33 µM. For the same molecule, in data set [1], the “concentration … to activate PPARγ1” value came to 0.01 µM and the “efficacy (qualitative, based on ATVmax)” value is listed as “+++++ (key: + 7–20%; ++ 20–30%; +++ 30–40%; ++++ 40–50%; +++++ >50%)”.

For the molecule “tri-isopropylated triaryl phosphates [Tri-ITP]”, in data set [2], the NOAEL amounted to 1.2 µM. Besides, in data set [1], the “ATVmax: maximal activation% of the tested compounds relative to rosiglitazone” value was found to be 41%, the “EC15 (concentration inducing 15% activation)” value turned out to be 5.7 µM, the “EC20 (concentration inducing 20% activation)” value is 7.76 µM and the “[ATVmax] … to induce the maximal activation%” value amounted to 33 µM. Besides, in data set [1], the “concentration … to activate PPARγ1” value was 1.2 µM and the “efficacy (qualitative, based on ATVmax)” value is “++++ (key: + 7–20%; ++ 20–30%; +++ 30–40%; ++++ 40–50%; +++++ >50%)”.

Turning to `CCCCOC(=O)c1ccccc1C(=O)OCCCC` [DBP, dibutyl phthalate], the no observed adverse effect level (NOAEL) in data set [2] amounted to 0.4 µM. Besides, the Emax in data set [1] is 23%. Also, in data set [1] (HEK293 PPARγ1 reporter), the “[ATVmax] … to induce the maximal activation%” value stood at 33 µM and the “efficacy (qualitative, based on ATVmax)” value is “++ (++ 20–30%)”. Besides, the “EC15 (concentration inducing 15% activation)” value in data set [1] (setting [5]) was determined as 6.73 µM. In addition, in data set [1] (setting [6]), the “EC20 (concentration inducing 20% activation)” value was found to be 13.6 µM.

On to `CC(C)COC(=O)c1ccccc1C(=O)OCC(C)C` [DiBP, diisobutyl phthalate], for which the NOAEL in data set [2] stood at 0.4 µM. In addition, in data set [1], the “EC15 (concentration inducing 15% activation)” value is 4.47 µM; the “EC20 (concentration inducing 20% activation)” value came out at 11.1 µM; the “[ATVmax] … to induce the maximal activation%” value was 33 µM; the “efficacy (qualitative, based on ATVmax)” value is “++ (key: + 7–20%; ++ 20–30%; +++ 30–40%; ++++ 40–50%; +++++ >50%)”. Besides, the Emax in data set [1] turned out to be 25%.

`[Cl][Sn]([c]1ccccc1)([c]1ccccc1)[c]1ccccc1` [TPT, triphenyltin chloride] gave an NOAEL in data set [2] of 0.0003 µM. Further, in data set [1], the “ATVmax: maximal activation% of the tested compounds relative to rosiglitazone” value worked out at 54%, the “EC15 (concentration inducing 15% activation)” value stood at 0.004 µM, the “EC20 (concentration inducing 20% activation)” value came out at 0.01 µM and the “[ATVmax] … to induce the maximal activation%” value was 0.33 µM. In addition, the “efficacy (qualitative, based on ATVmax)” value in data set [1] is reported as “+++++ (key: + 7–20%; ++ 20–30%; +++ 30–40%; ++++ 40–50%; +++++ >50%)”.

As to “isopropylated triaryl phosphates (mixture) [ITP]”, in data set [2], the NOAEL was found to be 1.2 µM.

On to `Oc1c(I)cc(I)cc1I` [2,4,6-TIP, 2,4,6-triiodinated phenol], for which the NOAEL in data set [2] came out at 0.4 µM. In data set [1], the “ATVmax: maximal activation% of the tested compounds relative to rosiglitazone” value came to 20%, the “EC15 (concentration inducing 15% activation)” value amounted to 8.72 µM, the “EC20 (concentration inducing 20% activation)” value stood at 11 µM and the “[ATVmax] … to induce the maximal activation%” value turned out to be 11 µM. In addition, the “efficacy (qualitative, based on ATVmax)” value in data set [1] was “++ (key: + 7–20%; ++ 20–30%; +++ 30–40%; ++++ 40–50%; +++++ >50%)”.

Regarding `CCCCC(CC)COC(=O)c1c(Br)c(Br)c(Br)c(Br)c1C(=O)O` (stereo not shown) [TBMEHP, mono-(2-ethyhexyl) tetrabromophthalate (metabolite)], the no observed adverse effect level (NOAEL) in data set [2] was determined as 0.13 µM. Besides, the “cell viability (in words)” value in data set [4] is given as “reduced viability at higher dosing levels”. For the same molecule, in data set [1], the “ATVmax: maximal activation% of the tested compounds relative to rosiglitazone” value came out at 40%, the “EC15 (concentration inducing 15% activation)” value was found to be 0.53 µM, the “EC20 (concentration inducing 20% activation)” value came out at 0.78 µM and the “[ATVmax] … to induce the maximal activation%” value stood at 3.3 µM. Moreover, the “efficacy (qualitative, based on ATVmax)” value in data set [1] is listed as “++++ (key: + 7–20%; ++ 20–30%; +++ 30–40%; ++++ 40–50%; +++++ >50%)”.

`CN(CCOc1ccc(CC2SC(=O)NC2=O)cc1)c1ccccn1` (stereo not shown) [Rosi., rosiglitazone (positive control), reference compound]: in data set [1] (HEK293 PPARγ1 reporter, nonobservable adverse effect level), the NOAEL amounted to 0.00001 µM.

Turning to `c1ccc(OP(Oc2ccccc2)Oc2ccccc2)cc1` [TPPi, triphenyl phosphite], the NOAEL in data set [2] was 1.2 µM.

Regarding `CCCCC(CC)COC(=O)/C=C/C(=O)OCC(CC)CCCC` (stereo not shown) [BEHF, bis(2-ethylhexyl) fumarate], the Emax in data set [1] is less than 8%. Also, the “PPARγ1 activation (in words)” value in data set [1] (reporter assay) is “did not display any obvious PPARγ1 activation”.

Regarding “monoisopropylated triaryl phosphates [mono-ITP]”, in data set [2], the NOAEL was 1.2 µM. In data set [4], the “cell viability (in words)” value was “Highly reduced cell viability”. Also, in data set [1], the “ATVmax: maximal activation% of the tested compounds relative to rosiglitazone” value turned out to be 15%; the “EC15 (concentration inducing 15% activation)” value came to 3.6 µM; the “[ATVmax] … to induce the maximal activation%” value turned out to be 3.6 µM; the “efficacy (qualitative, based on ATVmax)” value was “+ (key: + 7–20%; ++ 20–30%; +++ 30–40%; ++++ 40–50%; +++++ >50%)”.
